In patent US20250197368A1 (priority 2020, published 2025):
pKi: −log10 of the molar value. Where two headings read alike, the source gives them in different places.

Legend:
human α2β3γ2 GABAARs = test: In vitro electrophysiological recording assay (automated patch-clamp), α2-GABAAR relative efficacy; type: cell-based; conditions: % efficacy normalised to diazepam; GABA EC10-20; concentration generally >= 100 times Ki
Procedure: The efficacy of modulators was evaluated using the automated patch-clamp platforms QPatch16 (Sophion, Copenhagen, Denmark) or SyncroPatch 384PE (Nanion, Germany).
For QPatch electrophysiology testing L(tk^−) cells stably expressing human α1β3γ2, α2β3γ2, α3β3γ2, α5β3γ2 GABAARs were used. HEK293 cells stably expressing human α1β3γ2L, α2β3γ2L, α3β3γ2L and α5β3γ2L GABAARs were used for the SyncroPatch 384PE experiments.
All experiments were carried out at room temperature (20-22° C.) using a standard whole cell procedure and physiological solutions. Gigaseals were formed upon execution of a combined suction/voltage protocol with subsequent increased suction leading to the whole-cell configuration.
The currents recorded were acquired at either 1 KHz or 2 KHz and filtered using a Bessel filter. Whole-cell currents were measured at a holding potential of-65 mV (QPatch) or −80 mV (SyncroPatch).
For QPatch experiments, the extracellular solution contained of: 145 mM NaCl, 4 mM KCl, 1 mM MgCl2, 2 mM CaCl2), 10 mM HEPES, 10 mM D-glucose (pH 7.4), and the intracellular solution consisted of: 96 mM KCl, 28 mM CsCl, 25 mM KOH, 4.3 mM CaCl2), 1.4 mM MgCl2, 10 mM EGTA, 10 mM HEPES, 3 mM MgATP (pH 7.2). The osmolarities of the extracellular and intracellular solutions were 305 and 295 mOsm respectively.
For SyncroPatch experiments, the extracellular recording solution contained: 140 mM NaCl, 4 mM KCl, 2 mM CaCl2), 1 mM MgCl2, 10 mM HEPES, 5 mM glucose (pH 7.4 with NaOH and osmolarity of c. 300-310 mOsm). The intracellular recording solution consisted of: 90 mM KCl, 50 mM KF, 1.5 mM MgCl2, 11.1 mM EGTA and 10 mM HEPES (pH 7.2 with KOH and osmolarity of c. 300 mOsm). 2 mM of NaATP was added to the intracellular solution on the day of testing.
The effects of modulators were evaluated in the presence of a submaximal GABA concentration, giving typically less than 30% activation of the response elicited by a saturating GABA concentration. To check and ensure baseline current stability before compound addition, two to five consecutive applications of GABA EC10-20 separated by wash steps were performed before compound addition. The test compound was applied 1 min at least prior to co-application with GABA EC10-20. Following a further wash step, a saturating concentration of GABA was applied at the end of each recording, allowing the accurate evaluation for each cell of the percentage baseline activation elicited by the submaximal GABA applied.
The compounds were first dissolved in DMSO as a 10 mM stock and then further diluted to the testing concentrations so that the final DMSO concentration in the extracellular recording solution was 0.1% (QPatch) or 0.2% (SyncroPatch).
The % efficacy of modulators was determined from the GABA elicited currents recorded in the presence and absence of the test compound, using the formula:
[((compound peak current−leak)−(GABA peak current-leak))/(GABA peak current−leak)]*100,
where ‘leak’ is the leak baseline current at the holding potential, ‘compound peak current’ is the current elicited by co-application of compound and GABA, and ‘GABA peak current’ is the current elicited by GABA alone at the last GABA application before compound addition. The results were presented as ‘relative efficacy’ for each compound generally at a concentration equal or higher than 100 times their determined Ki. The relative efficacy of a compound was calculated by normalising its % efficacy to the corresponding % efficacy of diazepam that was separately determined.

[1] = target: human α2β3γ2 GABAARs (benzodiazepine site) (Homo sapiens (Human), UniProt P18507+P47869); test: In vitro radioligand binding assay ([3H]Ro15-1788 displacement), α2-GABAAR Ki
Procedure: The affinity (Ki) of compounds for the benzodiazepine site of human recombinant GABAARs was measured by their ability to inhibit the binding of the selective benzodiazepine antagonist [^3H]Ro15-1788 ([^3H] flumazenil).
Mouse L(tk^−) cells stably expressing human α1β3γ2, α2β3γ2, α3β3γ2, α5β3γ2 GABAARs were generated by transfection of the individual subunits in the dexamethasone-inducible expression vector pMSGneo in mouse L(tk^−) cells (Hadingham et al., 1993, Mol. Pharmacol. 43:970-975 and 1993, Mol. Pharmacol. 44:1211-1218).
L(tk^−) cells stably expressing human α1β3γ2, α2β3γ2, α3β3γ2, α5β3γ2 GABAARs were maintained in DMEM F12 medium supplemented with 10% Foetal Bovine Serum, 1% Penicillin/Streptomycin and 1 mg/mL Geneticin G418 in an incubator at 37° C. with a humidified atmosphere with 5% CO2. Dexamethasone was added to the culture medium to induce GABAAR expression.
L(tk−) cells were harvested and membranes were prepared for each receptor combination in either TE buffer (10 mM Tris·CI/0.1 mM EDTA, pH 7.5) or phosphate buffer (K2PO4 10 mM, pH 7.0) (Hadingham et al. (1992) Proc. Natl. Acad. Sci. USA; 89 (14): 6378-82). Protein concentration, receptor expression and the Kd of [^3H]Ro15-1788 were determined before Ki value of the compounds were evaluated. For Kd evaluation, saturation binding curves were obtained by incubating membrane with various concentrations of [^3H]Ro15-1788 (82.5 Ci/mM), with nonspecific binding measured in the presence of 1-3 μM TP003.
For Ki evaluation, cell membranes were incubated with 4 nM [^3H]Ro15-1788 along with a range of concentrations of test compound. Nonspecific binding was determined using 1-3 μM TP003. All incubations were performed for 1 hour at 4° C. in assay buffer. The total assay volume was 0.5 mL, containing 40 μg/well α1β3γ2, 30 μg/well α2β3γ2, 40 μg/well α3β3γ2 and 30 μg/well for α5β3γ2 of membrane protein. Incubations were terminated by filtration and washing with ice cold Tris-HCl buffer (50 mM, pH=7.4) over Whatman GF/B filters and the radioactivity of the filters was measured using liquid scintillation counting.
The % inhibition of [^3H]Ro15-1788 binding was plotted as a function of compound concentration and the IC50 calculated. From the IC50, the affinity (Ki) was calculated using the method of Cheng and Prusoff using the Kd values obtained for [^3H]Ro15-1788.

[2] = L(tk-) cell membranes, 4 nM [3H]Ro15-1788, read-out: α2-GABAAR Ki

Chain of human α2β3γ2 GABAARs (benzodiazepine site) (P47869 29-451): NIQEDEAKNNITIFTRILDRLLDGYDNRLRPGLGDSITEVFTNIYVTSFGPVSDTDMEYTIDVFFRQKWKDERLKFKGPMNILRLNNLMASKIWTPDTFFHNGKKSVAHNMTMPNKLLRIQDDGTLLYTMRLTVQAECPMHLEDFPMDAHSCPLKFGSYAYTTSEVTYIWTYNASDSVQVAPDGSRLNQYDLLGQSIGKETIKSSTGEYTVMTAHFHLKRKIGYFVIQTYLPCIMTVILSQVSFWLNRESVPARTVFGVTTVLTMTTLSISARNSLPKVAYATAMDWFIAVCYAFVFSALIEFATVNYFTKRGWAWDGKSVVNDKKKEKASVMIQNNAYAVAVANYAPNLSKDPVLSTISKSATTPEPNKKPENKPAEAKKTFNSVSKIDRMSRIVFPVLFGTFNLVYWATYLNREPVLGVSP
Chain of human α2β3γ2 GABAARs (benzodiazepine site) (P28472 26-473 partner): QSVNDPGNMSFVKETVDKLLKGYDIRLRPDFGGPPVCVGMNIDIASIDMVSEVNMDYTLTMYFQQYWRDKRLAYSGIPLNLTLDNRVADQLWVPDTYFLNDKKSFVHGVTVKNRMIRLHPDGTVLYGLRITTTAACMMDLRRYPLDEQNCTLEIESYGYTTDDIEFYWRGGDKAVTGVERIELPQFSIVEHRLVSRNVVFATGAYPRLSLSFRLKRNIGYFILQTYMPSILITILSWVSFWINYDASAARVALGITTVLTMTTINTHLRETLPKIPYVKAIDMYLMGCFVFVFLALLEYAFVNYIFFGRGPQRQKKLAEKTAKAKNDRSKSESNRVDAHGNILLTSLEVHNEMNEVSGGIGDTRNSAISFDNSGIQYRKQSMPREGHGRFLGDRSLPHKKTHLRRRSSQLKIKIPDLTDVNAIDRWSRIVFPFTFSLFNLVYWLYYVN
Chain of human α2β3γ2 GABAARs (benzodiazepine site) (P18507 40-475): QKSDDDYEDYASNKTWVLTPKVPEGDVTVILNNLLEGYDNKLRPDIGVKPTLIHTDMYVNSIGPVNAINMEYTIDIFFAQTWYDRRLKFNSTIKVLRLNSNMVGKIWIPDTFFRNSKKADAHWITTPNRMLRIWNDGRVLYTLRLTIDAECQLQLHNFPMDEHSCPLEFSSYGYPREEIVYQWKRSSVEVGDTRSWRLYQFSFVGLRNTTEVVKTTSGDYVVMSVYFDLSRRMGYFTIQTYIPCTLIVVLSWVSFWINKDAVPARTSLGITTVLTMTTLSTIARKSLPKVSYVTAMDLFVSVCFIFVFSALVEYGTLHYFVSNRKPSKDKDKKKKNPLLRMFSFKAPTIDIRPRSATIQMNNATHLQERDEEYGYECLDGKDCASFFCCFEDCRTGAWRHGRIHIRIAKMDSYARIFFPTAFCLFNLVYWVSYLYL

| Compound | α2-GABAAR Relative Efficacy (vs. Diazepam) (human α2β3γ2 GABAARs) | pKi [1] | pKi [1, 2] |
| --- | --- | --- | --- |
| CCCNC(=O)c1c(N)c2cccc(-c3cccc(OC(F)(F)F)n3)c2[nH]c1=O [Example 1, 4-Amino-2-oxo-N-propyl-8-[6-(trifluoromethoxy)-2-pyridyl]-1H-quinoline-3-carboxamide] | 0.13 | 9.10 |  |
| CCCNC(=O)c1c(N)c2cccc(-c3cccc(C(F)F)n3)c2[nH]c1=O [Example 3, 4-Amino-8-[6-(difluoromethyl)-2-pyridyl]-2-oxo-N-propyl-1H-quinoline-3-carboxamide] | 0.29 | 8.70 |  |
| CCCNC(=O)c1c(N)c2cccc(-c3ncc(F)cc3F)c2[nH]c1=O [Example 6, 4-Amino-8-(3,5-difluoro-2-pyridyl)-2-oxo-N-propyl-1H-quinoline-3-carboxamide] | 0.10 | 9.06 |  |
| CCCNC(=O)c1c(N)c2cccc(-c3nc(OCC)ccc3F)c2[nH]c1=O [Example 9, 4-Amino-8-(6-ethoxy-3-fluoropyridin-2-yl)-2-oxo-N-propyl-1,2-dihydroquinoline-3-carboxamide] | 0.23 | 9.60 |  |
| CCCNC(=O)c1c(N)c2cccc(-c3nc(COC)ccc3F)c2[nH]c1=O [Example 10, 4-Amino-8-(3-fluoro-6-(methoxymethyl)pyridin-2-yl)-2-oxo-N-propyl-1,2-dihydroquinoline-3-carboxamide] | 0.22 | 8.82 |  |
| CCCNC(=O)c1c(N)c2cccc(-c3nc(CO)ccc3C)c2[nH]c1=O [Example 12, 4-Amino-8-(6-(hydroxymethyl)-3-methylpyridin-2-yl)-2-oxo-N-propyl-1,2-dihydroquinoline-3-carboxamide] | 0.38 | 8.09 |  |
| CCCNC(=O)c1c(N)c2cccc(-c3cnccc3C)c2[nH]c1=O [Example 15, 4-Amino-8-(4-methylpyridin-3-yl)-2-oxo-N-propyl-1,2-dihydroquinoline-3-carboxamide] | 0.17 | 8.39 |  |
| CCCNC(=O)c1c(N)c2cccc(-c3cnccc3F)c2[nH]c1=O [Example 16, 4-Amino-8-(4-fluoropyridin-3-yl)-2-oxo-N-propyl-1,2-dihydroquinoline-3-carboxamide] | 0.34 | 7.62 |  |
| CNC(=O)c1c(N)c2cccc(-c3cnccc3OC)c2[nH]c1=O [Example 55, 4-Amino-8-(4-methoxy-3-pyridyl)-N-methyl-2-oxo-1H-quinoline-3-carboxamide] |  |  | 6.80 |
| COc1ccncc1-c1cccc2c(N)c(C(=O)NC3CC3)c(=O)[nH]c12 [Example 57, 4-Amino-N-cyclopropyl-8-(4-methoxy-3-pyridyl)-2-oxo-1H-quinoline-3-carboxamide] |  | 7.13 |  |
| COc1ccncc1-c1cccc2c(N)c(C(=O)NC3COC3)c(=O)[nH]c12 [Example 58, 4-Amino-8-(4-methoxy-3-pyridyl)-N-(oxetan-3-yl)-2-oxo-1H-quinoline-3-carboxamide] |  |  | 6.81 |
| COc1ccncc1-c1cccc2c(N)c(C(=O)NCC(F)F)c(=O)[nH]c12 [Example 61, 4-Amino-N-(2,2-difluoroethyl)-8-(4-methoxy-3-pyridyl)-2-oxo-1H-quinoline-3-carboxamide] |  |  | 6.97 |
| COc1ccncc1-c1cccc2c(N)c(C(=O)NCC(C)(F)F)c(=O)[nH]c12 [Example 65, 4-Amino-N-(2,2-difluoropropyl)-8-(4-methoxy-3-pyridyl)-2-oxo-1H-quinoline-3-carboxamide] |  | 7.26 |  |
| COc1ccncc1-c1cccc2c(N)c(C(=O)NCCCO)c(=O)[nH]c12 [Example 66, 4-Amino-N-(3-hydroxypropyl)-8-(4-methoxy-3-pyridyl)-2-oxo-1H-quinoline-3-carboxamide] |  | 7.73 |  |
| Nc1c(C(=O)NC2CC2)c(=O)[nH]c2c(-c3cnccc3OC(F)F)cccc12 [Example 70, 4-Amino-N-cyclopropyl-8-[4-(difluoromethoxy)-3-pyridyl]-2-oxo-1H-quinoline-3-carboxamide] |  |  | < 6.30 |
| COCCNC(=O)c1c(N)c2cccc(-c3cnccc3OC(F)F)c2[nH]c1=O [Example 71, 4-Amino-8-[4-(difluoromethoxy)-3-pyridyl]-N-(2-methoxyethyl)-2-oxo-1H-quinoline-3-carboxamide] |  |  | < 6.30 |
| Cc1nn(C)cc1-c1cccc2c(N)c(C(=O)NCC3COC3)c(=O)[nH]c12 [Example 72, 4-Amino-8-(1,3-dimethyl-1H-pyrazol-4-yl)-N-(oxetan-3-ylmethyl)-2-oxo-1,2-dihydroquinoline-3-carboxamide] |  |  | < 6.30 |
| Cc1nn(C)cc1-c1cccc2c(N)c(C(=O)NCCC#N)c(=O)[nH]c12 [Example 74, 4-Amino-N-(2-cyanoethyl)-8-(1,3-dimethylpyrazol-4-yl)-2-oxo-1H-quinoline-3-carboxamide] |  |  | < 6.30 |
| Cc1nn(C)cc1-c1cccc2c(N)c(C(=O)NCCCN(C)C)c(=O)[nH]c12 [Example 75, 4-Amino-N-[3-(dimethylamino)propyl]-8-(1,3-dimethylpyrazol-4-yl)-2-oxo-1H-quinoline-3-carboxamide] |  |  | 6.77 |
| CCCNC(=O)c1c(N)c2cccc(-c3cnccc3OC)c2n(C)c1=O [Example 77, 4-Amino-8-(4-methoxy-3-pyridyl)-1-methyl-2-oxo-N-propyl-quinoline-3-carboxamide] |  | 8.56 |  |
| CCCNC(=O)c1c(N)c2ccnc(-c3cnccc3OC)c2[nH]c1=O [Example 84, 4-Amino-8-(4-methoxypyridin-3-yl)-2-oxo-N-propyl-1,2-dihydro-1,7-naphthyridine-3-carboxamide] |  | 7.12 |  |
